Values of other authors in US8828355B2, “Imaging reporters of transgene expression” (University of Utah Research Foundation, priority 2004, dated 2014).

How the values were obtained:
Maltose binding protein = Maltose binding protein (Escherichia coli, UniProt P0AEX9); conditions: specificity
[1] = molecular target: Mutant maltose binding protein, combination of both these mutations (Escherichia coli, UniProt P0AEX9, DEL198-201/M347A/Q351A/Y202G); conditions: read-out: KD for maltotriose

OC[C@H]1O[C@@H](O[C@H]2[C@H](O)[C@@H](O)C(O)O[C@@H]2CO)[C@H](O)[C@@H](O)[C@H]1O (stereo partly shown) [lactose]
binding to maltose binding protein (Maltose binding protein): not to bind

OC[C@H]1O[C@H](O[C@H]2[C@H](O)[C@@H](O)[C@H](O)O[C@@H]2CO)[C@H](O)[C@@H](O)[C@@H]1O [maltose]
clearance from the body (infused): rapidly cleared from the body by the kidney
distribution after infusion (infused): distributed in the extracellular space
safety of intravenous infusion (intravenous infusion): safe

OC[C@H]1O[C@@](CO)(O[C@H]2O[C@H](CO)[C@@H](O)[C@H](O)[C@H]2O)[C@@H](O)[C@@H]1O [sucrose]
binding to maltose binding protein (Maltose binding protein): not to bind

OC[C@H]1O[C@H](O[C@H]2O[C@H](CO)[C@@H](O)[C@H](O)[C@H]2O)[C@H](O)[C@@H](O)[C@@H]1O [trehalose]
binding to maltose binding protein (Maltose binding protein): not to bind

maltotriose
Kd [1]: 6 nM
